According to US12258337B2, “Bicyclic CX3CR1 receptor agonists” (Board of Regents, The University of Texas System, priority 2019, dated 2025):

How the values were obtained:
Format in all cases: cell-based
rCX3CR1 = biological target: T1, rCX3CR1 (Rattus norvegicus, UniProt P35411); assay: Ga16 assay, CX3CR1 agonism, Ca2+ sensitive photo-protein readout (FLIPRTETRA); details: rat CX3CR1 cell line
T1 construct: expressed in transfected cells; stably expresses a Ca2+ sensitive photo-protein
T1 sequence (P35411 1-354): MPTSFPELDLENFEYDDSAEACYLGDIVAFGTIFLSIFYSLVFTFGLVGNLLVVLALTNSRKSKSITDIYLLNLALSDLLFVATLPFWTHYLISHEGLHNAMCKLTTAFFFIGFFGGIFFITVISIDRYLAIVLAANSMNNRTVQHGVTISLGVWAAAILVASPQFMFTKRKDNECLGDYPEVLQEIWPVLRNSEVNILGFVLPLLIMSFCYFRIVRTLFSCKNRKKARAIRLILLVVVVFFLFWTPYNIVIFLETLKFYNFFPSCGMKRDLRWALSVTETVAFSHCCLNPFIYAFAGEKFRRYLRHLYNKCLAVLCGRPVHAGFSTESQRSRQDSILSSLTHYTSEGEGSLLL
Experimental: (§1) Compounds (as well as stereoisomer(s) thereof and/or salt(s) thereof) were tested for CX3CR1 agonism in a cell based assay with fluorescent readout in Agonist Mode in dose response in quadruplicate with intra-plate modality).
(§2) Buffers and reagents. PBS (D-PBS without calcium and magnesium; EuroClone); Trypsin (Trypsin 0.05%, EDTA 0.02% in PBS; EuroClone); DMSO (Sigma); Standard tyrode buffer: in-house solution (130 mM NaCl, 5 mM KCl, 2 mM CaCl2), 1 mM MgCl2, 5 mM NaHCO3, 20 mM HEPES in water at pH 7.4; sterile filtered); Coelenterazine, native (Biosynth); stock 10 mM; Agonist: Recombinant Human Fractalkine (CX3CL1) (PeproTech); stock: 10 μM in standard tyrode buffer+BSA 0.1%; stored at −20° C.
(§3) Cell line. Human (hCX3CR1), mouse (mCX3CR1), and rat (rCX3CR1) were used for the assay.
(§4) Assay protocol. Experiments ere performed in 384 MTP format. Cells were seeded at 7,500 cells/well in 25 μl/well complete growth medium without selection antibiotics in 384-well plates. Twenty-four hours later, cells ere assayed for the response to various compounds using the Ca^2+ sensitive photo-protein stably expressed in the cells as readout.
(§5) The experiment was performed in a 384-well format according to the following procedure: • 24h after seeding, pre-incubate the cells at room temperature for 1 hour. • Then remove the culture medium. • Load cells with 20 μL/well of standard tyrode buffer+10 μM ceolenterazine. • Incubate cell plates for 3 hours at RT. • Inject 10 μL/w of 3× concentrated test compounds and controls in assay buffer at the FLIPRTETRA and monitor the kinetic response over a period of 90 seconds.
(§6) Data from FLIPRTETRA measurements were analyzed with the Genedata Screener© software. The following examples are meant to illustrate, but in no way to limit, the claimed invention.

mCX3CR1 = biological target: T2, mCX3CR1 (Mus musculus, UniProt Q9Z0D9); assay: as above; details: mouse CX3CR1 cell line
T2 construct: expressed in transfected cells; stably expresses a Ca2+ sensitive photo-protein
T2 sequence (Q9Z0D9 1-354): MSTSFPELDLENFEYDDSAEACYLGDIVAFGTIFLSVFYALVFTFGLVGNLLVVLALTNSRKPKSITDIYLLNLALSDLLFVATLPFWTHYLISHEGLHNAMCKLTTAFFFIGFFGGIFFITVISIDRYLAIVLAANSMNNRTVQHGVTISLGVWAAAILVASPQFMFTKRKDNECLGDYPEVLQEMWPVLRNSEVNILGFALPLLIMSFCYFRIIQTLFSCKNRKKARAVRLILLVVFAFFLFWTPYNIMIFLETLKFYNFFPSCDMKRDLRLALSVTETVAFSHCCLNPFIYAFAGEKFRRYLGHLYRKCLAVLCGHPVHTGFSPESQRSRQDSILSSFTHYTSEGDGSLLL
Experimental: as §1, §2, §3, §4, §5, §6

hCX3CR1 [1] = biological target: T3, hCX3CR1 (Homo sapiens, UniProt P49238); assay: ChAMPion assay (CHO ChAMPion/CX3CR1 K1.6, cAMP/CNG channel, photoprotein luminescence); design: expressed in transfected cells; stably expresses a Ca2+ sensitive photo-protein; details: ChAMPion assay, CHO ChAMPion/CX3CR1 K1.6, Forskolin 3 μM; read-out: hCX3CR1 agonism EC50
T3 sequence (P49238 1-355): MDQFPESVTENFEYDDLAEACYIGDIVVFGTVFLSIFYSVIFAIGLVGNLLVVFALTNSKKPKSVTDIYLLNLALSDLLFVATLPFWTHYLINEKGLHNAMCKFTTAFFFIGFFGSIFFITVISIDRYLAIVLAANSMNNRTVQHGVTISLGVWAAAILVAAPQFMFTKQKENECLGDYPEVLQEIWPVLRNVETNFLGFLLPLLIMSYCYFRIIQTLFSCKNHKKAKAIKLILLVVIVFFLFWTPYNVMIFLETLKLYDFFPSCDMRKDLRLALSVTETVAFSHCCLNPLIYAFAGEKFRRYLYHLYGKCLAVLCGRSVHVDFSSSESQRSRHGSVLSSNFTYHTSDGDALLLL
Experimental: Buffers and reagents. PBS (D-PBS without calcium and magnesium; EuroClone); Trypsin (Trypsin 0.05%, EDTA 0.02% in PBS; EuroClone); DMSO (Sigma); Tyrode buffer Ca^2+ free: in-house solution (130 mM NaCl, 5 mM KCl, 1 mM MgCl^2, 5 mM NaHCO3, 20 mM HEPES (pH 7.4); sterile filtered and autoclaved); Tyrode buffer 10 mM Ca^2+: in-house solution (130 mM NaCl, 5 mM KCl, 10 mM CaCl2), 1 mM MgCl2, 5 mM NaHCO3, 20 mM HEPES, in water at pH 7.4, sterile filtered); Coelenterazine, native (Biosynth); stock 10 mM; Agonist: Recombinant Human Fractalkine (CX3CL1) (PeproTech); stock: 10 μM in standard Tyrode buffer/BSA 01%; stored at −20° C.
Cell line. The final clone for the hCX3CR1 assay was CHO ChAMPion/CX3CR1 K1.6. ChAMPion technology is based on the co-expression of a Ca^2+ sensitive photoprotein and of a cyclic nucleotide-gated (CNG) channel acting as a cAMP biosensor in a CHO-K1 cell line. CNG channels are non-selective ligand gated cation channels that can be opened by the direct interaction with either cAMP or cGMP, at the intracellular C-terminus site of the channel. Channel opening allows the flux of extracellular calcium into the cell cytoplasm and its transient elevation can be recorded by means of several different calcium indicators. In the chAMPion system, the CNG channel has been modified to display sensitivity to cAMP levels in the physiological range. In addition the calcium influx through the opened channel is immediately detected by the recording of the photoprotein-emitted flash type luminescence signal.
The chAMPion cell line system can monitor the activation of transfected Gαi-coupled receptors, which elicit changes in 3,‘5’-adenosine cyclic monophosphate (cAMP) levels, which in turn is responsible for CNG opening and consequent Ca^2+ influx.
as §4, with “Experiments were” for “Experiments ere”, “at 10,000” for “at 7,500”, “25 μL/well” for “25 μl/well”, “cells were” for “cells ere”
The experiment was performed in a 384-well format according to the following procedure: • 24h after seeding, pre-incubate the cells at room temperature for 1 hour. • Then remove the culture medium. • Load cells with 20 μL/well of Ca^2+ free tyrode buffer+ceolenterazine 5 μM. • Incubate cell plates for 4 hours at RT. • 10 μl/well of 3× concentrated compounds in Ca^2+ free tyrode buffer+Forskolin 9 μM (final Forskolin concentration=3 μM) are applied to the cells (at 10 μl/s). Ten minutes later a second injection is performed: 10 μl/well of Ca^2+ free tyrode buffer+BSA 0.04% (final BSA concentration=0.01%). Twenty minutes later a third injection is performed: 20 μl/well of 10 mM Ca^2+ tyrode buffer (final Ca^2+ concentration was 3.3 mM) and luminescence is recorded for 90 seconds.
(§7) Data from FLIPRTETRA measurements are analyzed with the Genedata Screener© software.

hCX3CR1 [2] = biological target: T3, hCX3CR1; assay: Ga16 assay, CX3CR1 agonism, Ca2+ sensitive photo-protein readout (FLIPRTETRA); design: expressed in transfected cells; stably expresses a Ca2+ sensitive photo-protein; details: human CX3CR1 cell line
Experimental: as §1, §2, §3, §4, §5, §6

hCX3CR1 [3] = biological target: T3, hCX3CR1; assay: Suchi5 assay (HEK/NatClytin/CNG/Suchi5 transiently transfected hCX3CR1, Fluo-8 Ca2+ readout); design: expressed in transfected cells; stably expresses a Ca2+ sensitive photo-protein; details: Suchi5 assay, HEK/NatClytin/CNG/Suchi5 transfected with hCX3CR1; read-out: hCX3CR1 agonism EC50
Experimental: Buffers and reagents. PBS (D-PBS without calcium and magnesium; EuroClone); Trypsin (Trypsin 0.05%, EDTA 0.02% in PBS; EuroClone); Opti-MEM medium (Thermo Fisher); DMSO (Sigma); Standard tyrode buffer: in-house solution (130 mM NaCl, 5 mM KCl, 2 mM CaCl2), 1 mM MgCl2, 5 mM NaHCO3, 20 mM HEPES in water at pH 7.4; sterile filtered); Screen Quest™ Fluo-8 No Wash Calcium Assay Kit (AAt Bioquest®); Lipofectamine® 2000 Reagent (Thermo Fisher); Agonist: Recombinant Human Fractalkine (CX3CL1) (PeproTech); stock: 10 μM in standard Tyrode buffer/BSA 01%; stored at −20° C.
Cell line. The final cell line for CX3CR1-Suchi5 assay is HEK/NatClytin/CNG/Suchi5 transiently transfected hCX3CR1 cDNA. In this cell line native Gαi signaling is switched to Gαq pathway thanks to the overexpression of a Gαiq chimeric G protein (called Suchi5) to direct Gαi activation towards Ca^2+ release for measurement.
Assay protocol. Experiments are performed in 384 MTP format. Transiently transfected cells are seeded at 20,000 cells/well in 25 μl/well Opti-MEM medium without selection antibiotics in 384-well plates. 4-5-hours later 25 μL/well of complete medium with 20% of FBS are added to the cells. Twenty-four hours later, cells are assayed for the response to various compounds using a fluorescent Ca^2+ sensitive dye (FLUO8-No Wash Dye) as readout.
The experiment is performed in a 384-well format according to the following procedure: • 24h after seeding, remove the culture medium. • Load cells with 20 μL/well of 0.5X FLUO-8 No Wash Dye diluted in assay buffer. • Incubate cell plates for 1 hour at RT. • Inject 10 μL/w of 3× concentrated test compounds and controls in assay buffer at the FLIPRTETRA and monitor the kinetic response over a period of 90 seconds.
as §7

| Structure (SMILES) | EC50 (rCX3CR1) [µM] | EC50 (mCX3CR1) [µM] | EC50 (hCX3CR1 [1]) [µM] | EC50 (hCX3CR1 [2]) [µM] | EC50 (hCX3CR1 [3]) [µM] |
| --- | --- | --- | --- | --- | --- |
| O=C(NCC1(CN2C[C@H]3CCO[C@@H]3C2)CCCC1)c1cc2c(s1)CCCCCC2 [Example 69, N-[[1-[[(3aR,6aS)-2,3,3a,4,6,6a-hexahydrofuro[2,3-c]pyrrol-5-yl]methyl]cyclopentyl]methyl]-4,5,6,7,8,9-hexahydrocycloocta[b]thiophene-2-carboxamide] | 20.4 | 33.6 | 5.5 | 18 | – |
| CN(C)CC1(CNC(=O)c2cc3c(s2)CCCCCC3)Cc2ccccc2C1 [Example 10, N-[[2-[(dimethylamino)methyl]-1,3-dihydroinden-2-yl]methyl]-4,5,6,7,8,9-hexahydrocycloocta[b]thiophene-2-carboxamide] | 18.8 | 19.4 | 12.2 | 20.5 | – |
| COC1CCCN(CC(C)(C)CNC(=O)c2cc3c(s2)CCCCCC3)C1 (centres unmarked) [Example 54, N-[3-(3-methoxypiperidin-1-yl)-2,2-dimethylpropyl]-4,5,6,7,8,9-hexahydrocycloocta[b]thiophene-2-carboxamide] | > 100 | > 100 | – | 16.3 | 17.4 |
| COC1CCN(CC(C)(C)CNC(=O)c2cc3c(s2)CCCCCC3)CC1 [Example 47, N-[3-(4-methoxypiperidin-1-yl)-2,2-dimethylpropyl]-4,5,6,7,8,9-hexahydrocycloocta[b]thiophene-2-carboxamide] | 19.8 | 71.5 | – | 12.6 | 16.4 |

Next, values leading:

| EC50 (rCX3CR1) [µM] | EC50 (mCX3CR1) [µM] | EC50 (hCX3CR1 [1]) [µM] | EC50 (hCX3CR1 [2]) [µM] | EC50 (hCX3CR1 [3]) [µM] | Structure (SMILES) |
| --- | --- | --- | --- | --- | --- |
| 15.7 | 18.2 | 1.3 | 11.8 | – | CN(CCO)CC1(CNC(=O)c2cc3c(s2)CCCCCC3)CCCC1 [Example 17, N-[[1-[[2-hydroxyethyl(methyl)amino]methyl]cyclopentyl]methyl]-4,5,6,7,8,9-hexahydrocycloocta[b]thiophene-2-carboxamide] |
| 59.9 | 50.9 | 10.6 | 24.6 | – | CC(C)(CNC(=O)c1cc2c(s1)CCCCCCC2)CN1CCCC1 [Example 24, N-(2,2-dimethyl-3-pyrrolidin-1-ylpropyl)-5,6,7,8,9,10-hexahydro-4H-cyclonona[b]thiophene-2-carboxamide] |
| 19.8 | 52.8 | – | 10.9 | 11.8 | CC(C)(CNC(=O)c1cc2c(s1)CCCCCC2)CN1CCCC(O)C1 (centres unmarked) [Example 46, N-[3-(3-hydroxypiperidin-1-yl)-2,2-dimethylpropyl]-4,5,6,7,8,9-hexahydrocycloocta[b]thiophene-2-carboxamide] |
| 9.2 | 9 | – | 11.9 | 1 | CC1(O)CCCN(CC2(CNC(=O)c3cc4c(s3)CCCCCC4)CCC2)C1 (centres unmarked) [Example 59, N-[[1-[(3-hydroxy-3-methylpiperidin-1-yl)methyl]cyclobutyl]methyl]-4,5,6,7,8,9-hexahydrocycloocta[b]thiophene-2-carboxamide] |
